# Values quoted from earlier work, collected in paper PMC8996404, “The pharmacokinetics of buserelin after intramuscular administration in pigs and cows” (BMC Veterinary Research, 2022).
# Conditions: dogs, cited from earlier work
# Source text: High plasma concentration, high bonding rate, means more drugs cannot across the membrane and barrier. Therefore, binding changes can affect the distribution of drugs. Because protein binding of buserelin is about 15% [2], it is proportional to the body volume and body weight and animals using in this study had larger volume of body water or extracellular water. It has been repo ...
smiles,measurement,setting,value
"CCNC(=O)[C@@H]1CCCN1C(=O)[C@H](CCCNC(=N)N)NC(=O)[C@H](CC(C)C)NC(=O)[C@@H](COC(C)(C)C)NC(=O)[C@H](Cc1ccc(O)cc1)NC(=O)[C@H](CO)NC(=O)[C@H](Cc1c[nH]c2ccccc12)NC(=O)[C@H](Cc1cnc[nH]1)NC(=O)[C@@H]1CCC(=O)N1 [buserelin, Buserelin]",clearance,5 mg per dog i.v. injection ref 18,1.7 ± 0.10 mL/min/kg
same,tmax,s.c. at a dose of 3.3 mg ref 18,4 h
same,Vd,single dose 5 mg i.v. ref 18,0.0501 ± 0.0024 L/kg
same,t1/2,single dose of 5 mg i.v. injection ref 18,0.94 ± 0.0163 h
